According to patent US7371551B1, “Feedback-resistant homoserine transsuccinylases” (priority 2002, dated 2008):

Experiments:
[1] = target: T1, E. coli homoserine transsuccinylase (MetA, SEQ ID No. 2) variant pKP446, Tyr294 replaced with Cys (Escherichia coli, UniProt P07623, Y294C); test: Inhibition of homoserine transsuccinylase activity by SAM (cell extract, DTNB assay at 412 nm); assay type: biochemical; settings: pH 7.5, read-out: Activity (%) in the presence of 1 mM SAM
T1 construct: made in house; host or cells: E. coli W3110 (ATCC 27325), cell extract
T1 sequence (P07623 2-309 Y294C): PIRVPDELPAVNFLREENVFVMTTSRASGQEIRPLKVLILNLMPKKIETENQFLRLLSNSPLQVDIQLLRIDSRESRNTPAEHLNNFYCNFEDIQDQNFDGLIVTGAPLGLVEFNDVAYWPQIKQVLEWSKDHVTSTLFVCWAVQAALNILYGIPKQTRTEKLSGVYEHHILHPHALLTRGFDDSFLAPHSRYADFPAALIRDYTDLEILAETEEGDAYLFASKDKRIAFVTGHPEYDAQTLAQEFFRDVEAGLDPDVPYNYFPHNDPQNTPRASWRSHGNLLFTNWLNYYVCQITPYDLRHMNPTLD
Method: (§1) In order to determine the sensitivity of the activity of the different homoserine transsuccinylases to SAM, it is possible, for example, to carry out an activity test as described in Lee L. W. et al., J. Biol. Chem. 241, 5479-5480 (1966). In this method, the enzyme extract is incubated with homoserine and succinyl-CoA. After various times, a part of the test assay sample is stopped by adding it to a mixture of ethanol, water, and 5,5′-dithiobis(2-nitrobenzoic acid). The absorption is determined photometrically at 412 nm. The described test is suitable, for example, for determining the sensitivity of the homoserine transsuccinylases to SAM.
(§2) The influence of SAM on the activities of the different homoserine transsuccinylases was determined by quantifying the activity in the presence of different concentrations of SAM (Cl salt, Sigma). The cell extracts were grown and prepared as described in Example 3. The activity test was carried out as described in Lee L. W. et al., J. Biol. Chem. 241, 5479-5480 (1966), with the enzyme extract being incubated with 50 mM potassium phosphate buffer, pH 7.5, 3 mM homoserine and 0.3 mM succinyl-CoA. After various times, 100 μl volumes of test mixture were stopped by adding them in each case to a mixture of 400 μl of ethanol, 400 μl of water and 100 μl of 10 mM 5,5′-dithiobis(2-nitrobenzoic acid). After the resulting mixture had been incubated at room temperature for 5 minutes, the absorption was determined photometrically at 412 nm. After the protein concentration had been determined, the enzyme activity was calculated using the extinction coefficient. The Ki was determined as a measure of the ability of SAM to inhibit the activity.

[2] = target: T2, E. coli homoserine transsuccinylase (MetA, SEQ ID No. 2) variant pSLmetA*P, Tyr294 replaced with Pro (Escherichia coli, UniProt P07623, Y294P); test: as above; assay type: biochemical; settings: pH 7.5, read-out: Activity (%) in the presence of 1 mM SAM
T2 construct: made in house; host or cells: E. coli W3110 (ATCC 27325), cell extract
T2 sequence (P07623 2-309 Y294P): as the sequence (P07623 2-309 Y294C) above, with C293P counted along it
Method: as §1, §2

[3] = target: T3, E. coli homoserine transsuccinylase (MetA, SEQ ID No. 2) variant pSLmetA*Q, Tyr294 replaced with Gln (Escherichia coli, UniProt P07623, Y294Q); test: as above; assay type: biochemical; settings: pH 7.5, read-out: Activity (%) in the presence of 1 mM SAM
T3 construct: made in house; host or cells: E. coli W3110 (ATCC 27325), cell extract
T3 sequence (P07623 2-309 Y294Q): as the sequence (P07623 2-309 Y294C) above, with C293Q counted along it
Method: as §1, §2

[4] = target: T4, E. coli homoserine transsuccinylase (MetA, SEQ ID No. 2) variant pSLmetA*0, amino acid 294 (Tyr) deleted (Escherichia coli, UniProt P07623, DEL294-294); test: as above; assay type: biochemical; settings: pH 7.5, read-out: Activity (%) in the presence of 1 mM SAM
T4 construct: made in house; host or cells: E. coli W3110 (ATCC 27325), cell extract
T4 sequence (P07623 other isoform, or with tags, fused parts or gaps DEL294-294): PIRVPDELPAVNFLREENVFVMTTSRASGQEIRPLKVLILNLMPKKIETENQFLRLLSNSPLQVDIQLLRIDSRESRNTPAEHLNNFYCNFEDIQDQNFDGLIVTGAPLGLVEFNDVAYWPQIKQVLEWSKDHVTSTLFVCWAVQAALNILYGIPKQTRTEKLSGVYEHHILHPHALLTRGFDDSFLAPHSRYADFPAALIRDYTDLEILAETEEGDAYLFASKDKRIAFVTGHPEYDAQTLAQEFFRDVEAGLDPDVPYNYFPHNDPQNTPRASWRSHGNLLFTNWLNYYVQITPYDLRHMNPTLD
Method: as §1, §2

[5] = target: T5, E. coli homoserine transsuccinylase (MetA, SEQ ID No. 2) variant pSLmetAN, Asp101 replaced with Asn (Escherichia coli, UniProt P07623, D101N); test: as above; assay type: biochemical; settings: pH 7.5, read-out: Activity (%) in the presence of 1 mM SAM
T5 construct: made in house; host or cells: E. coli W3110 (ATCC 27325), cell extract
T5 sequence (P07623 2-309 D101N): as the sequence (P07623 2-309 Y294C) above, with D100N, C293Y counted along it
Method: as §1, §2

[6] = target: T6, E. coli homoserine transsuccinylase (MetA, SEQ ID No. 2) variant pSLmetA*K, Tyr294 replaced with Lys (Escherichia coli, UniProt P07623, Y294K); test: as above; assay type: biochemical; settings: pH 7.5, read-out: Activity (%) in the presence of 1 mM SAM
T6 construct: made in house; host or cells: E. coli W3110 (ATCC 27325), cell extract
T6 sequence (P07623 2-309 Y294K): as the sequence (P07623 2-309 Y294C) above, with C293K counted along it
Method: as §1, §2

[7] = target: T7, E. coli homoserine transsuccinylase (MetA, SEQ ID No. 2) variant pSLmetA*L, Tyr294 replaced with Leu (Escherichia coli, UniProt P07623, Y294L); test: as above; assay type: biochemical; settings: pH 7.5, read-out: Activity (%) in the presence of 1 mM SAM
T7 construct: made in house; host or cells: E. coli W3110 (ATCC 27325), cell extract
T7 sequence (P07623 2-309 Y294L): as the sequence (P07623 2-309 Y294C) above, with C293L counted along it
Method: as §1, §2

[8] = target: T8, E. coli homoserine transsuccinylase (MetA, SEQ ID No. 2) variant pSLmetA*A, Tyr294 replaced with Ala (Escherichia coli, UniProt P07623, Y294A); test: as above; assay type: biochemical; settings: pH 7.5, read-out: Activity (%) in the presence of 1 mM SAM
T8 construct: made in house; host or cells: E. coli W3110 (ATCC 27325), cell extract
T8 sequence (P07623 2-309 Y294A): as the sequence (P07623 2-309 Y294C) above, with C293A counted along it
Method: as §1, §2

[9] = target: T1, E. coli homoserine transsuccinylase (MetA, SEQ ID No. 2) variant pKP446, Tyr294 replaced with Cys; test: biochemical; settings: pH 7.6, read-out: Activity (%) in the presence of 1 mM L-methionine
Text: (§3) Any method which enables the activity of the enzyme to be determined in the presence of L-methionine or SAM can be used for determining the sensitivity of the homoserine transsuccinylase to L-methionine and/or SAM. For example, the homoserine transsuccinylase activity can be determined by following the method described by Kredich and Tomkins for determining the activity of serine acetyltransferases (Kredich N. M. and Tomkins G. M., J. Biol. Chem. 241, 4955-4965 (1966)). The enzyme activity is measured in an assay sample which contains homoserine and succinyl-CoA. The reaction is started by adding enzyme and monitored in a spectrophotometer by way of the decrease in the extinction at 232 nm which results from cleavage of the thioester bond in the succinyl-coenzyme A. The described test is suitable for determining the sensitivity of the homoserine transsuccinylases to methionine. The inhibition of homoserine transsuccinylase activity is tested in the presence of different concentrations of L-methionine in the reaction mixture.
(§4) The activity, and the influence of L-methionine on the activity, of the different homoserine transsuccinylases were determined by means of an enzyme test using cell extracts in which the respective proteins had been produced. For this, the corresponding plasmids, encoding altered homoserine transsuccinylases, were introduced, by transformation, into the E. coli strain W3110 (ATCC 27325) using methods known to the skilled person. The transformation mixture was spread on LB-tetracycline agar plates (10 g of tryptone/l, 5 g of yeast extract/l, 5 g of NaCl/l, 15 g of agar/l and 15 mg of tetracycline/l) and incubated at 37° C. overnight. The resulting transformants were grown in SM1 medium (for 1 l of medium: CaCl2×2H2O, 0.0147 g, MgSO4×7H2O, 0.3 g, Na2MoO4×2H2O, 0.15 mg, H3BO3, 2.5 mg, CoCl2×6H2O, 0.7 mg, CuSO4×5H2O, 0.25 mg, MnCl2×4H2O, 1.6 mg, ZnSO4×7H2O, 0.3 mg, KH2PO4, 3.0 g, K2HPO4, 12.0 g, (NH4)2SO4, 5 g, NaCl, 0.6 g, FeSO4×7H2O, 0.002 g, Na3-citrate×2H2O, 1 g, glucose, 5 g, tryptone, 1 g, yeast extract, 0.5 g), centrifuged down at an absorption of approx. 0.8 at 600 nm, washed in 50 mM Tris pH 7.5, and centrifuged down once again. The cells were resuspended in 50 mM Tris/Cl, pH 7.5, 2 mM dithiothreitol, 0.5 mM phenylmethylsulfonyl fluoride and disrupted in a French press. The supernatant from a further centrifugation was used as the enzyme extract in the test. The enzyme activity was determined, in a mixture containing 50 mM Tris/Cl, pH 7.6, 1 mM homoserine and 0.1 mM succinyl-CoA, by photometrically quantifying, by means of the decrease in the extinction at 232 nm, the coenzyme A formed in the reaction, following the method described by Kredich and Tomkins for determining the activity of serine acetyltransferases (Kredich N. M. and Tomkins G. M., J. Biol. Chem. 241, 4955-4965 (1966)). The effect of added L-methionine on the activity was determined and the inhibitability was quantified as a Ki value. The Ki which is determined is the concentration of L-methionine at which the activity of the homoserine transsuccinylase is only 50% of its activity in the absence of L-methionine.

[10] = target: T2, E. coli homoserine transsuccinylase (MetA, SEQ ID No. 2) variant pSLmetA*P, Tyr294 replaced with Pro; test: biochemical; settings: pH 7.6, read-out: Activity (%) in the presence of 1 mM L-methionine
Text: as §3, §4

[11] = target: T3, E. coli homoserine transsuccinylase (MetA, SEQ ID No. 2) variant pSLmetA*Q, Tyr294 replaced with Gln; test: biochemical; settings: pH 7.6, read-out: Activity (%) in the presence of 1 mM L-methionine
Text: as §3, §4

[12] = target: T4, E. coli homoserine transsuccinylase (MetA, SEQ ID No. 2) variant pSLmetA*0, amino acid 294 (Tyr) deleted; test: biochemical; settings: pH 7.6, read-out: Activity (%) in the presence of 1 mM L-methionine
Text: as §3, §4

[13] = target: T5, E. coli homoserine transsuccinylase (MetA, SEQ ID No. 2) variant pSLmetAN, Asp101 replaced with Asn; test: biochemical; settings: pH 7.6, read-out: Activity (%) in the presence of 1 mM L-methionine
Text: as §3, §4

[14] = target: T6, E. coli homoserine transsuccinylase (MetA, SEQ ID No. 2) variant pSLmetA*K, Tyr294 replaced with Lys; test: biochemical; settings: pH 7.6, read-out: Activity (%) in the presence of 1 mM L-methionine
Text: as §3, §4

[15] = target: T7, E. coli homoserine transsuccinylase (MetA, SEQ ID No. 2) variant pSLmetA*L, Tyr294 replaced with Leu; test: biochemical; settings: pH 7.6, read-out: Activity (%) in the presence of 1 mM L-methionine
Text: as §3, §4

[16] = target: T8, E. coli homoserine transsuccinylase (MetA, SEQ ID No. 2) variant pSLmetA*A, Tyr294 replaced with Ala; test: biochemical; settings: pH 7.6, read-out: Activity (%) in the presence of 1 mM L-methionine
Text: as §3, §4

[17] = test system: homoserine transsuccinylase; test: Homoserine transsuccinylase activity test (Lee et al.), 5,5'-dithiobis(2-nitrobenzoic acid), absorption at 412 nm, with and without SAM; assay type: biochemical, E. coli
Method: as §1, §2

[18] = test system: homoserine transsuccinylase; test: Homoserine transsuccinylase enzyme test using cell extracts, decrease in extinction at 232 nm, with and without L-methionine; assay type: biochemical, E. coli
Text: as §3, §4

## C[S+](CC[C@H](N)C(=O)[O-])C[C@H]1O[C@@H](n2cnc3c(N)ncnc32)[C@H](O)[C@@H]1O (stereo partly shown) [SAM, S-Adenosylmethionine]
[1]
  activity at 1000 µM: 92%
[2]
  activity at 1000 µM: 98%
[3]
  activity at 1000 µM: 87%
[4]
  activity at 1000 µM: 96%
[5]
  activity at 1000 µM: 91%
[6]
  activity at 1000 µM: 90%
[7]
  activity at 1000 µM: 80%
[8]
  activity at 1000 µM: 95%

## CSCC[C@H](N)C(=O)O [L-methionine]
[9]
  activity at 1000 µM: 96%
[10]
  activity at 1000 µM: 91%
[11]
  activity at 1000 µM: 95%
[12]
  activity at 1000 µM: 98%
[13]
  activity at 1000 µM: 86%
[14]
  activity at 1000 µM: 92%
[15]
  activity at 1000 µM: 89%
[16]
  activity at 1000 µM: 94%

B1: pSLmetAI: MetA variant with Ile instead of Asp at position 101 (protein, UniProt P07623 2-309, looked up, variant D101I)
Homoserine …: PIRVPDELPAVNFLREENVFVMTTSRASGQEIRPLKVLILNLMPKKIETENQFLRLLSNSPLQVDIQLLRIDSRESRNTPAEHLNNFYCNFEDIQDQNFIGLIVTGAPLGLVEFNDVAYWPQIKQVLEWSKDHVTSTLFVCWAVQAALNILYGIPKQTRTEKLSGVYEHHILHPHALLTRGFDDSFLAPHSRYADFPAALIRDYTDLEILAETEEGDAYLFASKDKRIAFVTGHPEYDAQTLAQEFFRDVEAGLDPDVPYNYFPHNDPQNTPRASWRSHGNLLFTNWLNYYVYQITPYDLRHMNPTLD
[17]; 1 mM SAM, activity in the absence of SAM corresponds to 100%
  Activity (%) in the presence of 1 mM SAM: 93%
[17]; SAM (Cl salt, Sigma) as inhibitor
  Ki: 12 mM
[17]; cell extract, 3 mM homoserine, 0.3 mM succinyl-CoA, 50 mM potassium phosphate buffer pH 7.5
  Activity (U/mg): 0.68 U/mg
[18]; 1 mM L-methionine, activity in the absence of L-methionine corresponds to 100%
  Activity (%) in the presence of 1 mM L-methionine: 95%
[18]; cell extract of E. coli W3110 transformants, 1 mM homoserine, 0.1 mM succinyl-CoA, 50 mM Tris/Cl pH 7.6
  Activity (U/mg): 0.107 U/mg
[18]; concentration of L-methionine at which activity is only 50% of activity in its absence
  Ki: 9.5 mM
